Assays:
lipoprotein lipase (LPL) = molecular target: T1, lipoprotein lipase (LPL) (Rattus norvegicus, UniProt Q06000); experiment: LPL activity in cultured heart cells and medium; format: cell-based; conditions: 24 hrs incubation of heart cells; for LPL activity: total: cells plus medium; for % increase in the total: versus 0 M
T1 construct: endogenous in cells; host or cells: F1 heart cell cultures from newborn rat hearts (mainly non-beating mesenchymal cells)
T1 sequence (Q06000 28-474): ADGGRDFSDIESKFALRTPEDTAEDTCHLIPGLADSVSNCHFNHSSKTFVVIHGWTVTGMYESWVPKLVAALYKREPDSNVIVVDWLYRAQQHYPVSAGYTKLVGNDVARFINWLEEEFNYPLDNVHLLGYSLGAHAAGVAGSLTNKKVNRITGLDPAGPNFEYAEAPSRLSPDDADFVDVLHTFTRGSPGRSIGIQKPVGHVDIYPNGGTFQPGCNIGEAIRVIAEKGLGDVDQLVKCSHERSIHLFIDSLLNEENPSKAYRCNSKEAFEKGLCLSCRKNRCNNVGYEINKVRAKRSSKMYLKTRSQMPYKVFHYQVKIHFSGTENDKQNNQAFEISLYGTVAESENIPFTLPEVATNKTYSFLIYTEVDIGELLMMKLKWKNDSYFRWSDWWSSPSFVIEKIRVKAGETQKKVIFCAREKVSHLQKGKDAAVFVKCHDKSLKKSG
Procedure: F₁ heart cell cultures were prepared from newborn rat hearts as previously described (Chajek, T. et al, Biochem. Biophys. Acta 528, 456-474(1978)). They consisted mainly of non-beating mesenchymal cells and were used 8-12 days after their isolation.
The enzyme activity was determined on aliquots of medium and of homogenates of cells which had been released from the petri dish with a rubber policeman in 1 ml of 0.025 M NH₃/NH₄C1 buffer (pH 8.1) containing 1 unit/ml of heparin. The assay system consisted of 0.1 ml of medium or 0.1 ml of cell homogenate ([…]) and 0.1 ml of substrate containing labeled triolein, prepared according to the method of Nilsson-Ehle and Schotz, (J. Lipid Res. 17, 536-541 (1976)). Incubations were carried out at 37°C for 45 min. The reaction was stopped by the addition of methanol/chloroform/heptane (1,4:1.25:1, v/v) and the extraction of fatty acids was performed according to the method of Belfrage and Vaughan (J. Lipid Res. 10, 341-344 (1969), as modified by Nilsson-Ehle and Schotz. Enzyme activity was calculated according to the formula of Nilsson-Ehle and Schotz.

[1] = molecular target: T2, ESb mouse lymphoma heparanase (Mus musculus, UniProt Q6YGZ1); experiment: Inhibition of heparanase degradation of 35S labelled ECM; format: biochemical; conditions: compound 10 µgr/ml, 24 hrs incubation; for Total low-mol-wt. HS fragments released by heparanase (cpm): control 17,756 cpm
T2 construct: endogenous in cells; host or cells: ESb mouse lymphoma cells
T2 sequence (Q6YGZ1 150-535 limits assumed): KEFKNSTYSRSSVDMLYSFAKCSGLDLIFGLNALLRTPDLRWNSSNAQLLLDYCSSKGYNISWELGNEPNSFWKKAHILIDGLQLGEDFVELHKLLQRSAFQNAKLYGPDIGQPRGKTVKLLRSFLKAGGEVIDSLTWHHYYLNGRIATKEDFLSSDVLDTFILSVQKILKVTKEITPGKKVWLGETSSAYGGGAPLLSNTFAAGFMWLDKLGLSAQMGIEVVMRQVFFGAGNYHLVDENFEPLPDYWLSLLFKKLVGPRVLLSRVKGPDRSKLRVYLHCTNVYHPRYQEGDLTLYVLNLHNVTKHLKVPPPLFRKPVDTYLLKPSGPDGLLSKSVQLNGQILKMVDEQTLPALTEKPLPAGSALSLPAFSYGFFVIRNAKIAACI
T2 sequence (Q6YGZ1 28-101 limits assumed): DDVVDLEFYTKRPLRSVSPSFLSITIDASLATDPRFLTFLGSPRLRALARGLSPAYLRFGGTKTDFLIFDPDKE
Procedure: The ability of several of the above mentioned compounds to inhibit lymphoma-cell derived heparanase was tested in the assay system described by Vlodavsky et. al. (Cancer Research. 43: 2704-2711 (1983). ³⁵S labelled ECM was incubated for 24 hrs with ESb mouse lymphoma heparanase in the presence of 10 ugr ml of the indicated compounds. Degradation of the sulfated glycosaminoglycan was followed by gel filtration of the supernatants. Heparanase activity is expressed as the total amount of labelled low-molecular-weight fragments released from the ECM substrate. The results are summarized in Table III.

fresh human blood = experiment: Anticoagulant effect: partial thromboplastin time (PTT) in blood samples; conditions: citrated human blood, after addition of Ca++, control 30.5
Procedure: 0.25 ml of the indicated concentration of the drug (x10, diluted in saline) were added to 2.25 ml of fresh human blood, collected in the presence of citrate. PTT was measured following the addition of Ca⁺⁺.

LPL = molecular target: T3, LPL (Rattus norvegicus, UniProt Q06000); experiment: Plasma levels of LPL after oral administration to rats; format: in vivo; conditions: 1ml of 10%-20% solution
T3 construct: from tissue; host or cells: rat plasma (in vivo, after oral aluminon)
T3 sequence (Q06000 28-474): T1 sequence (Q06000 28-474)
From the text: Moreover, since aluminon can be absorbed through the gastrointestinal tract, it can be used as an orally administrable anticoagulant (as opposed to heparin which has to be given by injection).

SMILES: Cc1cc(-c2ccc(/N=N/c3ccc4c(S(=O)(=O)O)cc(S(=O)(=O)O)c(N)c4c3O)c(C)c2)ccc1/N=N/c1ccc2c(S(=O)(=O)O)cc(S(=O)(=O)O)c(N)c2c1O [Evan's Blue]
- LPL activity: total (lipoprotein lipase (LPL); Evan's Blue 10⁻³ M): 7749 m mole FFA/h/dish
- % increase in the total (lipoprotein lipase (LPL); Evan's Blue 10⁻³ M): +139.4%
- LPL activity: total (lipoprotein lipase (LPL); Evan's Blue 10⁻⁴ M): 5230 m mole FFA/h/dish
- % increase in the total (lipoprotein lipase (LPL); Evan's Blue 10⁻⁴ M): +61.6%
- LPL activity: total (lipoprotein lipase (LPL); Evan's Blue 10⁻⁵ M): 4288 m mole FFA/h/dish
- % increase in the total (lipoprotein lipase (LPL); Evan's Blue 10⁻⁵ M): +32.5%
- Total low-mol-wt. HS fragments released by heparanase (cpm) [1]: 6,986 cpm

SMILES: O=C(O)C1=CC(=C(c2ccc(O)c(C(=O)O)c2)c2ccc(O)c(C(=O)O)c2)C=CC1=O [Aluminon]
- PTT (fresh human blood; Aluminon final conc. 0.01 mg/ml): 30.5 s
- PTT (fresh human blood; Aluminon final conc. 0.1 mg/ml): 190 s
- PTT (fresh human blood; Aluminon final conc. 1 mg/ml): >300 s
- Total low-mol-wt. HS fragments released by heparanase (cpm) [1]: 3,822 cpm
- plasma levels of LPL (LPL): elevated by about an order of magnitude

SMILES: O=S(=O)(O)c1ccc(N=C2C=CC(=C(c3ccc(Nc4ccc(S(=O)(=O)O)cc4)cc3)c3ccc(Nc4ccc(S(=O)(=O)O)cc4)cc3)C=C2)cc1 [Methyl Blue]
- % Inhibition [1]: 23%
- Total low-mol-wt. HS fragments released by heparanase (cpm) [1]: 13,676 cpm

SMILES: CCN(Cc1cccc(S(=O)(=O)O)c1)c1ccc(C(=C2C=CC(=[N+](CC)Cc3cccc(S(=O)(=O)O)c3)C=C2)c2ccc(O)cc2S(=O)(=O)[O-])cc1 [Fast Green]
- % Inhibition [1]: 32%

Reference: patent EP0354818A2, “Pharmaceutical compositions containing polyaromatic compounds as active ingredient and their use” (HADASSAH MEDICAL ORGANIZATION, priority 1988, dated 1990)
